In brackets after ≈: the same amount, converted by molar mass. Like-named read-outs stand apart in the source and are kept apart here.
How the values were obtained:
[1] = system: Salmonella typhimurium TA98, TA100, TA1535, TA1537
GPX4 = biological target: T1, GPX4 (Homo sapiens, UniProt P36969); assay: GPX4 activity assay in cell lysates (NADPH-coupled); assay type: biochemical; set-up: endogenous in cells; host or cells: A-673 cell lysate
T1 sequence (P36969 1-170 isoform P36969-2): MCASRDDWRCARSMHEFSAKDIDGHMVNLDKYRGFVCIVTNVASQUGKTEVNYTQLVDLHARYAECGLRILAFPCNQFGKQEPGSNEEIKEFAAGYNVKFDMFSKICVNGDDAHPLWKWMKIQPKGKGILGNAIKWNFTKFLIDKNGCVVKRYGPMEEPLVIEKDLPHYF
Method in brief: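 Native GPX4 in lysates of A-673 cells grown with 20 nM sodium selenite; lysate preincubated with compound 45 min at 37 °C in pH 8.0 buffer with 3 mM GSH, 0.5 mM NADPH and glutathione reductase. Reaction started with phosphatidylcholine hydroperoxide; NADPH consumption followed at 340 nm over 25 min; triplicates.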

in vitro [2] = assay type: in vitro ADME, human; conditions: human, microsomes
Experimental: (§1) […]. The incubation timepoints measured were 0, 5, 10, 15, 30, and 45 minutes. All samples were prepared in duplicate and analyzed by LC-MS/MS.

HT-1080 cells = assay: Cellular dose response assay, HT-1080 with and without Fer-1; assay type: cell-based, human; conditions: for ferroptosis induction / potency in HT-1080 cells, result in words: RSL3 as control
Method in brief: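 Following overnight attachment (1500 cells per well), triplicate wells got 2-fold serial dilutions across 12 points, with or without Fer-1 for HT-1080, at 0.4% final DMSO. After 48 h incubation, luminescent ATP-based viability (CellTiter-Glo) was recorded.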

in vitro [3] = assay type: in vitro ADME, mouse; conditions: mouse, microsomes
Experimental: as §1

[4] = not given; remark: listed apart in the source
[5] = Kinetic aqueous solubility
[6] = system: DTP cells derived from PC9; assay: Drug-tolerant persister cell model, DTP cells; conditions: for % Viability Persister: 48 hours
[7] = HT1080 + Fer-1, read-out: IC50 (uM) HT1080 + Fer-1
[8] = HT1080, without Fer-1, read-out: IC50 (uM) HT1080
[9] = ferroptosis selectivity, HT1080 + Fer-1 vs HT1080

Row | Compound | GPX4% inhibition at 2.5 μM (GPX4) | Microsome Stability t1/2 (min) human (in vitro [2]) | Plasma Stability t1/2 (min) mouse | IC50 (HT-1080 cells; [7]) | IC50 (HT-1080 cells; [8]) | Selectivity (HT-1080 cells; [9]) | Microsome Stability t1/2 (min) mouse (in vitro [3]) | Plasma Stability t1/2 (min) human [4] | other results
1 | O=[N+]([O-])c1ccc2c(c1)Cc1ccccc1-2 [Compound 2-Nitrofluorene, 2-Nitrofluorene] | – | – | – | – | – | – | – | – | Positive Significance (− to +++) TA98 + S9 ([1]; 30 μM): +++ (Very strong positive, if p < 0.001); Positive Significance (− to +++) TA98 − S9 ([1]; 30 μM): +++ (Very strong positive, if p < 0.001)
2 | COc1c(Cl)cc(-c2ccc3c(C(=O)NC(C)(C)C(C)(C)OC(=O)CCl)nn(C)c3c2)cc1Cl [QW-750] | 20.4 ± 3.6% | 10.2 min | >1000 min | 5.4 µM | 1.6 µM | 3.4 | 13.5 min | 290 min | ferroptosis induction / potency in HT-1080 cells, result in words (HT-1080 cells): moderate potency
3 | Cn1nc(C(=O)NC(C)(C)COC(=O)CCl)c2ccc(-c3ccc(Oc4ccccc4)c(Cl)c3)cc21 [QW-561] | – | 12 min | 23.9 min | – | – | – | 24 min | 116 min | GPX4% inhibition at 5 μM (GPX4): 87.6 ± 2.8%; Solubility ([5]; aqueous solubility, Table 9): 15.6 µM (≈ 8.21 µg/mL)
4 | CC(OC(=O)CCl)C(C)(C)NC(=O)c1nn(C)c2cc(-c3ccc(N4CCOCC4)c(Cl)c3)ccc12 (racemic) [QW-737] | 86.4 ± 7.3% | 8.6 min | 6.6 min | 1.7 µM | 1 µM | 1.7 | 7.4 min | 275 min | –
5 | Nc1c2ccccc2nc2ccccc12 [Compound 9-Aminoacridine, 9-Aminoacridine] | – | – | – | – | – | – | – | – | Positive Significance (− to +++) TA1537 + S9 ([1]; 10 μM): ++ (Strong positive, if p < 0.01); Positive Significance (− to +++) TA1537 − S9 ([1]; TA1537, − S9, 10 μM): +++ (Very strong positive, if p < 0.001)
6 | COc1ccc(CNS(=O)(=O)c2ccc(-c3ccc4c(C(=O)NC(C)(C)COC(=O)CCl)nn(C)c4c3)cc2)cc1 [QW-658] | 26.3 ± 63.2% | – | 6.2 min | 14.6 µM | 3.5 µM | 4.2 | – | 12.5 min | GPX4% inhibition at 5 μM (GPX4): 20.9 ± 14.0%
7 | Cn1nc(C(=O)NC(C)(C)COC(=O)CCl)c2ccc(-c3ccc4c(c3)OCO4)cc21 [QW-594] | 71.5 ± 3.0% | 250 min | 17.0 min | 8.8 µM | 2.7 µM | – | 137 min | 6.6 min | GPX4 inhibitory activity, result in words (GPX4): comparable to that of QW-446; GPX4 inhibition rate (GPX4; concentration not given): 75%; half-life in mouse plasma: 17 min; Selectivity (HT-1080 cells): 3.3; Solubility ([5]; aqueous solubility, Table 9): 1.0 µM (≈ 0.444 µg/mL); unbound clearance rate (in vitro [3]): 5.1 µL/h/mg
8 | COc1ccc(-c2ccc3c(C(=O)NC(COC(=O)CCl)C(F)(F)F)nn(C)c3c2)cc1Cl (stereo not drawn) [QW-686] | 35.8 ± 14.3% | – | 23.8 min | – | – | – | – | 16.6 min | –
9 | Cn1nc(C(=O)NC(C)(C)COC(=O)CCl)c2ccc(-c3ccc(Cl)c(Cl)c3)cc21 [QW-570] | – | 22 min | 16.9 min | – | – | – | 15 min | 56.7 min | GPX4% inhibition at 5 μM (GPX4): 80.7 ± 14.8%; Solubility ([5]; aqueous solubility, Table 9): 15.6 µM (≈ 7.31 µg/mL)
10 | Cn1nc(-n2cc(C(C)(C)COC(=O)CCl)nn2)c2ccc(-c3ccc(N4CCOCC4)c(Cl)c3)cc21 [QW-680] | 57.3 ± 2.8% | 28 min | 3.2 min | 12.1 µM | 3 µM | 4.0 | 26 min | 67.4 min | –
11 | CN(N=O)C(=O)N[C@H]1C(O)O[C@H](CO)[C@@H](O)[C@@H]1O (mixture of isomers) [Streptozotocin] | – | – | – | – | – | – | – | – | Positive Significance (− to +++) TA98 − S9 ([1]; 2.5 μM): + (Weak positive, if p < 0.05); Positive Significance (− to +++) TA100 + S9 ([1]; 2.5 μM): +++ (Very strong positive, if p < 0.001); Positive Significance (− to +++) TA100 − S9 ([1]; TA100, − S9, 2.5 μM): +++ (Very strong positive, if p < 0.001); Positive Significance (− to +++) TA1535 + S9 ([1]; 2.5 μM): +++ (Very strong positive, if p < 0.001); Positive Significance (− to +++) TA1535 − S9 ([1]; TA1535, − S9, 2.5 μM): +++ (Very strong positive, if p < 0.001)
12 | COc1c(Cl)cc(-c2ccc3c(C(=O)NC(C)(C)C(C)OC(=O)CCl)nn(C)c3c2)cc1Cl (racemic) [QW-745] | 55.4 ± 8.1% | 19.5 min | 25.4 min | 1.8 µM | 1.6 µM | 1.1 | 13.0 min | 245 min | –
13 | COc1ccc(-c2ccc3c(C(=O)NC(C)(C)C(C)(C)OC(=O)CCl)nn(C)c3c2)cc1Cl [QW-730] | 98.4 ± 17.6% | 6.6 min | 385 min | 5.7 µM | 0.59 µM | 9.7 | 10.7 min | 318 min | ferroptosis induction / potency in HT-1080 cells, result in words (HT-1080 cells): sub-micromolar GI50 value
14 | CC(C)Oc1ccc(-c2ccc3c(C(=O)NC(C)(C)COC(=O)CCl)nn(C)c3c2)cc1Cl [QW-550] | – | 49 min | 12.5 min | – | – | – | 25 min | 73.2 min | GPX4% inhibition at 5 μM (GPX4): 91.5 ± 2.2%; Solubility ([5]; aqueous solubility, Table 9): 7.8 µM (≈ 3.84 µg/mL)
15 | Cn1nc(C(=O)NC(C)(C)COC(=O)CCl)c2ccc(-c3ccc(OC(F)(F)F)c(Cl)c3)cc21 [QW-672] | 68.0 ± 45.2% | 17 min | 4.7 min | 18.2 µM | 2.4 µM | 7.6 | 19 min | 47.9 min | –
16 | CC(C)(NC(=O)c1nn(Cc2ccc(Cl)cc2)c2cc(-c3ccc(N4CCOCC4)c(Cl)c3)ccc12)C(C)(C)OC(=O)CCl [QW-811] | – | – | – | – | – | – | – | – | GPX4% inhibition at 2.5 μM (GPX4; 4th generation): 47.4 ± 8.9%; selectivity for DTPs vs PC9 parental cells, result in words [6]: selective and similar or stronger cytotoxicity to DTP cells; % Viability Persister ([6]; dose 1.0 μM): 93.00%; % Viability Persister ([6]; dose 10.0 μM): 4.75%; Selectivity (HT-1080 cells; ferroptosis selectivity, IC50 with Fer-1 / IC50): 45.4; IC50 (HT-1080 cells; with Fer-1, Table 10, read-out: IC50 (μM) HT1080 + Fer-1): 12.7 µM; IC50 (HT-1080 cells; without Fer-1, Table 10, read-out: IC50 (μM) HT1080): 0.28 µM
17 | Cn1nc(C(=O)NC(C)(C)COC(=O)CCl)c2ccc(-c3csc4ccccc34)cc21 [QW-505] | – | 1.7 min | 6.3 min | – | – | – | 1.8 min | 10.2 min | GPX4% inhibition at 5 μM (GPX4): 76.1 ± 4.0%; Solubility ([5]; 1% DMSO, Phosphate Buffered Saline pH 7.4, 1 hour, ambient, UV/Vis absorbance): <1.3 µM; Solubility ([5]; aqueous solubility, Table 9): <1.3 µM
18 | Nc1ccc2cc3ccccc3cc2c1 [Compound 2-Aminoanthracene, 2-Aminoanthracene] | – | – | – | – | – | – | – | – | Positive Significance (− to +++) TA98 + S9 ([1]; 1 μM): +++ (Very strong positive, if p < 0.001); Positive Significance (− to +++) TA100 + S9 ([1]; 1 μM): +++ (Very strong positive, if p < 0.001); Positive Significance (− to +++) TA1535 + S9 ([1]; 1 μM): ++ (Strong positive, if p < 0.01); Positive Significance (− to +++) TA1537 + S9 ([1]; 1 μM): +++ (Very strong positive, if p < 0.001)
19 | COc1ccc(-c2ccc3c(C(=O)NC(C)(C)CNC(=O)CCl)nn(C)c3c2)cc1Cl [QW-628] | 33.6 ± 6.5% | 15 min | 311 min | – | – | – | 19 min | 243 min | –

— patent publication US20250248979A1, “NOVEL GPX4 INHIBITORS AND USES THEREOF” (THE TRUSTEES OF COLUMBIA UNIVERSITY IN THE CITY OF NEW YORK, priority 2022, published 2025)
